{"source": "paper PMC7749003", "about": "(SLAS discovery : advancing life sciences R & D, 2020)", "target": "nCDase (Homo sapiens, UniProt Q9NR71)", "sequence (Q9NR71 99-780 limits assumed)": "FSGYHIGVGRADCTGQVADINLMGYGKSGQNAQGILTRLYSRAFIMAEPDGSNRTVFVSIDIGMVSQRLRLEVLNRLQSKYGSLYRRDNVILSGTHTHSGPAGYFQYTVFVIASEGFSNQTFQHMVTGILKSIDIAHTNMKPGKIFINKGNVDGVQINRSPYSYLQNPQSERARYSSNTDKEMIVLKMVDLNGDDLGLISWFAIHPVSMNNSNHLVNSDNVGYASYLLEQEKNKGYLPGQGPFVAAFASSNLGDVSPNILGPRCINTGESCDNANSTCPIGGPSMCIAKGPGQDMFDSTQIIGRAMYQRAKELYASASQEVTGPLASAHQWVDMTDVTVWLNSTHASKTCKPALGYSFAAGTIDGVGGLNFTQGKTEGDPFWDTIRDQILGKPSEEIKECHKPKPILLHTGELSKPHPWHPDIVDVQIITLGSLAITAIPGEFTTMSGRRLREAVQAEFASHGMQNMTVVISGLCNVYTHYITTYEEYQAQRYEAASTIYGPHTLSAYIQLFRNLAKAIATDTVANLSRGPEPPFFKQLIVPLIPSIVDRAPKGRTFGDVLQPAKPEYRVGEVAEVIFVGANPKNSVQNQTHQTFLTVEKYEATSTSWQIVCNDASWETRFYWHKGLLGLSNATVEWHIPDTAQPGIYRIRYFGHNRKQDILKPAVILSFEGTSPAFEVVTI", "experiment": "manual RBM-ceramide assay with fresh compounds", "assay_type": "biochemical", "settings": "dose titration", "data": [{"smiles": "CC(/C=C/C(=O)NO)=C\\[C@@H](C)C(=O)c1ccc(N(C)C)cc1", "note": "[TSA, Trichostatin A]", "values": [{"measurement": "IC50", "value": 4, "unit": "µM"}]}]}
